{
  "source": "the supplement of paper PMC10307832",
  "assay_in_all_cases": "relative viability (nuclei count vs DMSO), 5 days (fraction); higher = more cells survive",
  "key": {"HARA": {"system": "HARA", "how_it_was_run": "(§1)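 Cells from lung cancer lines were seeded into 1536-well plates and, one day later, dosed by pin tool. Treatments were either a single drug or a fixed dose of an anchor drug with five library-drug doses (not always all listed) in √10 steps. After 5 days, nuclei were stained in a one-step fixation (final 0.05% Triton X-100, 1% formaldehyde, 1 ug/ml Hoechst) and counted on 4× images, and relative viability is the treated-to-vehicle nuclei ratio, as the median of duplicate plates.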"}, "LU99A": {"system": "LU99A", "how_it_was_run": "as §1"}, "UMC-11": {"system": "UMC-11", "how_it_was_run": "as §1"}, "NCI-H2085": {"system": "NCI-H2085", "how_it_was_run": "as §1"}, "NCI-H2126": {"system": "NCI-H2126", "how_it_was_run": "as §1"}, "NCI-H1355": {"system": "NCI-H1355", "how_it_was_run": "as §1"}, "EPLC-272H": {"system": "EPLC-272H", "how_it_was_run": "as §1"}, "HCC-44": {"system": "HCC-44", "how_it_was_run": "as §1"}, "NCI-H2023": {"system": "NCI-H2023", "how_it_was_run": "as §1"}, "NCI-H838": {"system": "NCI-H838", "how_it_was_run": "as §1"}, "PC-14": {"system": "PC-14", "how_it_was_run": "as §1"}, "NCI-H1915": {"system": "NCI-H1915", "how_it_was_run": "as §1"}, "SW 1573": {"system": "SW 1573", "how_it_was_run": "as §1"}, "HOP-62": {"system": "HOP-62", "how_it_was_run": "as §1"}, "NCI-H1651": {"system": "NCI-H1651", "how_it_was_run": "as §1"}, "NCI-H358": {"system": "NCI-H358", "how_it_was_run": "as §1"}, "NCI-H1993": {"system": "NCI-H1993", "how_it_was_run": "as §1"}, "NCI-H2347": {"system": "NCI-H2347", "how_it_was_run": "as §1"}, "NCI-H650": {"system": "NCI-H650", "how_it_was_run": "as §1"}, "COR-L23": {"system": "COR-L23", "how_it_was_run": "as §1"}, "HCC-15": {"system": "HCC-15", "how_it_was_run": "as §1"}, "LC-2-ad": {"system": "LC-2-ad", "how_it_was_run": "as §1"}},
  "data": [
    {"smiles": "COc1nc(C)cnc1NS(=O)(=O)c1cccnc1-c1ccc(-c2nnco2)cc1", "note": "[Zibotentan] + Nc1nc2[nH]cc(CCc3ccc(C(=O)N[C@@H](CCC(=O)O)C(=O)O)cc3)c2c(=O)[nH]1 [Pemetrexed] (partner 0.2 µM)", "values": [
      {"measurement": "relative viability", "setting": "HARA; first compound 0.08 µM", "result": 0.247},
      {"measurement": "relative viability", "setting": "HARA; first compound 0.8 µM", "result": 0.183},
      {"measurement": "relative viability", "setting": "HARA; first compound 2.53 µM", "result": 0.292},
      {"measurement": "relative viability", "setting": "LU99A; first compound 0.08 µM", "result": 0.169},
      {"measurement": "relative viability", "setting": "LU99A; first compound 0.253 µM", "result": 0.177},
      {"measurement": "relative viability", "setting": "LU99A; first compound 0.8 µM", "result": 0.14},
      {"measurement": "relative viability", "setting": "LU99A; first compound 2.53 µM", "result": 0.198},
      {"measurement": "relative viability", "setting": "UMC-11; first compound 0.08 µM", "result": 0.671},
      {"measurement": "relative viability", "setting": "UMC-11; first compound 0.253 µM", "result": 0.727},
      {"measurement": "relative viability", "setting": "UMC-11; first compound 0.8 µM", "result": 0.742},
      {"measurement": "relative viability", "setting": "UMC-11; first compound 2.53 µM", "result": 0.859},
      {"measurement": "relative viability", "setting": "NCI-H2085; first compound 0.08 µM", "result": 0.884},
      {"measurement": "relative viability", "setting": "NCI-H2085; first compound 0.253 µM", "result": 0.852},
      {"measurement": "relative viability", "setting": "NCI-H2085; first compound 0.8 µM", "result": 0.892},
      {"measurement": "relative viability", "setting": "NCI-H2085; first compound 2.53 µM", "result": 0.918},
      {"measurement": "relative viability", "setting": "NCI-H2126; first compound 0.08 µM", "result": 0.713},
      {"measurement": "relative viability", "setting": "NCI-H2126; first compound 0.253 µM", "result": 0.657},
      {"measurement": "relative viability", "setting": "NCI-H2126; first compound 0.8 µM", "result": 0.435},
      {"measurement": "relative viability", "setting": "NCI-H2126; first compound 2.53 µM", "result": 0.78},
      {"measurement": "relative viability", "setting": "NCI-H1355; first compound 0.08 µM", "result": 1.04},
      {"measurement": "relative viability", "setting": "NCI-H1355; first compound 0.253 µM", "result": 1.05},
      {"measurement": "relative viability", "setting": "NCI-H1355; first compound 0.8 µM", "result": 1.03},
      {"measurement": "relative viability", "setting": "NCI-H1355; first compound 2.53 µM", "result": 1.07},
      {"measurement": "relative viability", "setting": "EPLC-272H; first compound 0.253 µM", "result": 0.319},
      {"measurement": "relative viability", "setting": "EPLC-272H; first compound 0.8 µM", "result": 0.309},
      {"measurement": "relative viability", "setting": "EPLC-272H; first compound 2.53 µM", "result": 0.405},
      {"measurement": "relative viability", "setting": "HCC-44; first compound 0.08 µM", "result": 0.629},
      {"measurement": "relative viability", "setting": "HCC-44; first compound 0.253 µM", "result": 0.657},
      {"measurement": "relative viability", "setting": "HCC-44; first compound 0.8 µM", "result": 0.589},
      {"measurement": "relative viability", "setting": "HCC-44; first compound 2.53 µM", "result": 0.666},
      {"measurement": "relative viability", "setting": "NCI-H2023; first compound 0.08 µM", "result": 0.243},
      {"measurement": "relative viability", "setting": "NCI-H2023; first compound 0.8 µM", "result": 0.225},
      {"measurement": "relative viability", "setting": "NCI-H2023; first compound 2.53 µM", "result": 0.251},
      {"measurement": "relative viability", "setting": "NCI-H838; first compound 0.08 µM", "result": 0.249},
      {"measurement": "relative viability", "setting": "NCI-H838; first compound 0.253 µM", "result": 0.234},
      {"measurement": "relative viability", "setting": "NCI-H838; first compound 0.8 µM", "result": 0.23},
      {"measurement": "relative viability", "setting": "NCI-H838; first compound 2.53 µM", "result": 0.252},
      {"measurement": "relative viability", "setting": "PC-14; first compound 0.08 µM", "result": 0.143},
      {"measurement": "relative viability", "setting": "PC-14; first compound 0.253 µM", "result": 0.12},
      {"measurement": "relative viability", "setting": "PC-14; first compound 0.8 µM", "result": 0.129},
      {"measurement": "relative viability", "setting": "PC-14; first compound 2.53 µM", "result": 0.144},
      {"measurement": "relative viability", "setting": "NCI-H1915; first compound 0.08 µM", "result": 0.477},
      {"measurement": "relative viability", "setting": "NCI-H1915; first compound 0.253 µM", "result": 0.493},
      {"measurement": "relative viability", "setting": "NCI-H1915; first compound 0.8 µM", "result": 0.357},
      {"measurement": "relative viability", "setting": "NCI-H1915; first compound 2.53 µM", "result": 0.526},
      {"measurement": "relative viability", "setting": "SW 1573; first compound 0.08 µM", "result": 0.872},
      {"measurement": "relative viability", "setting": "SW 1573; first compound 0.8 µM", "result": 0.783},
      {"measurement": "relative viability", "setting": "SW 1573; first compound 2.53 µM", "result": 0.823},
      {"measurement": "relative viability", "setting": "HOP-62; first compound 0.08 µM", "result": 0.319},
      {"measurement": "relative viability", "setting": "HOP-62; first compound 0.253 µM", "result": 0.408},
      {"measurement": "relative viability", "setting": "HOP-62; first compound 0.8 µM", "result": 0.281},
      {"measurement": "relative viability", "setting": "HOP-62; first compound 2.53 µM", "result": 0.352},
      {"measurement": "relative viability", "setting": "NCI-H1651; first compound 0.08 µM", "result": 0.594},
      {"measurement": "relative viability", "setting": "NCI-H1651; first compound 0.253 µM", "result": 0.581},
      {"measurement": "relative viability", "setting": "NCI-H1651; first compound 0.8 µM", "result": 0.578},
      {"measurement": "relative viability", "setting": "NCI-H1651; first compound 2.53 µM", "result": 0.539},
      {"measurement": "relative viability", "setting": "NCI-H358; first compound 0.08 µM", "result": 0.189},
      {"measurement": "relative viability", "setting": "NCI-H358; first compound 0.253 µM", "result": 0.141},
      {"measurement": "relative viability", "setting": "NCI-H358; first compound 2.53 µM", "result": 0.184},
      {"measurement": "relative viability", "setting": "NCI-H1993; first compound 0.08 µM", "result": 0.695},
      {"measurement": "relative viability", "setting": "NCI-H1993; first compound 0.253 µM", "result": 0.557},
      {"measurement": "relative viability", "setting": "NCI-H1993; first compound 0.8 µM", "result": 0.557},
      {"measurement": "relative viability", "setting": "NCI-H1993; first compound 2.53 µM", "result": 0.545},
      {"measurement": "relative viability", "setting": "NCI-H2347; first compound 0.08 µM", "result": 0.416},
      {"measurement": "relative viability", "setting": "NCI-H2347; first compound 0.253 µM", "result": 0.463},
      {"measurement": "relative viability", "setting": "NCI-H2347; first compound 0.8 µM", "result": 0.465},
      {"measurement": "relative viability", "setting": "NCI-H2347; first compound 2.53 µM", "result": 0.471},
      {"measurement": "relative viability", "setting": "NCI-H650; first compound 0.08 µM", "result": 0.947},
      {"measurement": "relative viability", "setting": "NCI-H650; first compound 0.253 µM", "result": 0.927},
      {"measurement": "relative viability", "setting": "NCI-H650; first compound 0.8 µM", "result": 0.905},
      {"measurement": "relative viability", "setting": "NCI-H650; first compound 2.53 µM", "result": 0.977},
      {"measurement": "relative viability", "setting": "COR-L23; first compound 0.08 µM", "result": 0.214},
      {"measurement": "relative viability", "setting": "COR-L23; first compound 0.253 µM", "result": 0.185},
      {"measurement": "relative viability", "setting": "COR-L23; first compound 0.8 µM", "result": 0.207},
      {"measurement": "relative viability", "setting": "COR-L23; first compound 2.53 µM", "result": 0.204},
      {"measurement": "relative viability", "setting": "HCC-15; first compound 0.08 µM", "result": 0.221},
      {"measurement": "relative viability", "setting": "HCC-15; first compound 0.253 µM", "result": 0.22},
      {"measurement": "relative viability", "setting": "HCC-15; first compound 0.8 µM", "result": 0.217},
      {"measurement": "relative viability", "setting": "HCC-15; first compound 2.53 µM", "result": 0.227},
      {"measurement": "relative viability", "setting": "LC-2-ad; first compound 0.08 µM", "result": 0.251},
      {"measurement": "relative viability", "setting": "LC-2-ad; first compound 0.253 µM", "result": 0.286},
      {"measurement": "relative viability", "setting": "LC-2-ad; first compound 0.8 µM", "result": 0.27},
      {"measurement": "relative viability", "setting": "LC-2-ad; first compound 2.53 µM", "result": 0.274}
    ]}
  ]
}
